Results from patent US11753363B2, “13-oxidized ingenol derivative and use thereof” (Tianjin Pharmaceutical Da Ren Tang Group Corp., Ltd. …, priority 2017, dated 2023).
In brackets after ≈: the same amount, converted by molar mass.

Columns and labels:
Format in all cases: cell-based
[1] = system: A549 (human lung cancer cells); experiment: Inhibition of proliferation of tumor cell lines (MTT), A549; details: Homo sapiens, A549, 72 h, read-out: IC50 value of compound for inhibition of proliferation of tumor cell lines, A549
Procedure: (§1) In this example, the inhibitory activity of compounds of the present invention against proliferation of seven human tumor cell lines and mouse B16-F10 melanoma cells was tested in vitro, and the IC50 value (50% inhibitory concentration) of compounds against each tumor cell line was calculated.
(§2) The seven human tumor cell lines are: MCF-7 (human breast cancer cells), LOVO (human colon cancer cells), A549 (human lung cancer cells), BGC-823 (human gastric cancer cells), SMMC-7721 (human liver cancer cells), K562 (human leukemia cells), and HeLa (human cervical cancer cells).
(§3) IC50 values of the compounds for A549, BGC-823, LOVO, MCF-7, SMMC-7721, HeLa, and B16-F10 cells were tested. The above cells were routinely cultured in 1640 nutrient solution containing 10% calf serum, with passage for 1 time every 2 days, and the cells in logarithmic growth phase were taken for experiments. After the A549, BGC-823, LOVO, MCF-7, SMMC-7721, HeLa and B16-F10 cells in logarithmic growth phase were subjected to 0.25% trypsin digestion, they were blown into a single cell suspension, and then the cell concentration was adjusted to about 1×10^5·mL^−1 using RPMI 1640 solution containing 10% calf serum. The cells were seeded in a 96-well culture plate at 100 μL per well, and cultured for 24 hours until the cells were attached. K562 cells were taken and centrifuged and diluted into 2×10^5·mL^−1 single cell suspension with RPMI 1640 solution containing 10% calf serum, and inoculated into a 96-well culture plate at 100 μL per well.
(§4) 100 μL of sample solution with different concentrations to be tested were added to the above 96-well plate, each concentration was added to 4 wells in parallel, and the cell control group was added with an equal volume of RPMI 1640 medium containing 10% calf serum to make a reaction volume of 200 μL. After incubating in an incubator at 37° C., 5% CO2 for 72 h, 10 μL of 5 mg·mL^−1 MTT solution was added to each well, and incubated at 37° C. for 4 h. The supernatant was carefully aspirated, 180 μL of DMSO was added to each well followed by shaking, and the absorbance (OD) value was measured at 570 nm on the microplate reader. The inhibition rate was calculated, and regression equation was established with the logarithmic value of the sample concentration and the inhibition rate (IR) to find the IC50 value of the compound against the cells to be tested. IR (%)=(1−OD value of the experimental group/OD value of the cell control group)×100%

[2] = system: BGC-823 (human gastric cancer cells); experiment: Inhibition of proliferation of tumor cell lines (MTT), BGC-823; details: Homo sapiens, BGC-823, 72 h, read-out: IC50 value of compound for inhibition of proliferation of tumor cell lines, BGC-823
Procedure: as §1, §2, §3, §4

[3] = system: LOVO (human colon cancer cells); experiment: Inhibition of proliferation of tumor cell lines (MTT), LOVO; details: Homo sapiens, 72 h, read-out: IC50 value of compound for inhibition of proliferation of tumor cell lines, LOVO
Procedure: as §1, §2, §3, §4

[4] = system: K562 (human leukemia cells); experiment: Inhibition of proliferation of tumor cell lines (MTT), K562; details: Homo sapiens, K562, 72 h, read-out: IC50 value of compound for inhibition of proliferation of tumor cell lines, K562
Procedure: as §1, §2, §3, §4

[5] = system: SMMC-7721 (human liver cancer cells); experiment: Inhibition of proliferation of tumor cell lines (MTT), SMMC-7721; details: Homo sapiens, SMMC-7721, 72 h, read-out: IC50 value of compound for inhibition of proliferation of tumor cell lines, SMMC-7721
Procedure: as §1, §2, §3, §4

[6] = system: MCF-7 (human breast cancer cells); experiment: Inhibition of proliferation of tumor cell lines (MTT), MCF-7; details: Homo sapiens, MCF7, MCF-7, 72 h, read-out: IC50 value of compound for inhibition of proliferation of tumor cell lines, MCF-7
Procedure: as §1, §2, §3, §4

[7] = system: neutrophilic granulocytes; experiment: Neutrophil oxidative burst (luminol chemiluminescence); details: Neutrophil, rat neutrophils, (Csample−Ccontrol)/Ccontrol×100%, read-out: Efficiency of compounds in stimulating neutrophil oxidative burst; for activation at 3 µg/mL: 3 μg/mL
Procedure: This example investigated the effect of compound on neutrophil oxidative burst and calculated the efficiency of each compound in stimulating neutrophil oxidative burst.
Blood was taken from the abdominal aorta of rat. The neutrophilic granulocytes were isolated by the operational procedure of the rat peripheral blood neutrophil isolation kit. The neutrophilic granulocytes were re-suspended by Hanks, and were plated in a 96-well white plate at 1×10^5 cells/well, 80 μL/well; 1 mM of Luminol was added at 10 μL/well; 10 μL of the sample was added to each well, and the degree of oxidative burst was evaluated by chemiluminescence. Calculation formula of Efficiency: Efficiency (%)=(Csample−Ccontrol)/Ccontrol×100%

[8] = system: release of IL-8 by human keratinocytes (HaCaT); experiment: Release of IL-8 by human keratinocytes (HaCaT), IL-8 Elisa; details: Homo sapiens, HaCaT; 0.1 μg/mL; 24 h; (Csample−Ccontrol)/Ccontrol×100%; read-out: Efficiency of compound in stimulating the release of IL-8 by HaCaT cells
Procedure: This Example investigated the effect of compound on release of IL-8 by human keratinocytes (HaCaT) and calculated the efficiency of each compound in stimulating the release of IL-8 by human keratinocytes (HaCaT).
Hacat cells were cultured in MEM+10% FBS under the conditions of 37° C., 5% CO2, and when the cells reached 80-95% fusion, they were inoculated into a 96-well culture plate (1×10^4 cells/well) at 100 μL/well, and incubated for 18-24 h. The supernatant was discarded and the cells were incubated for 3-6 h in 1% FBS medium. Different concentrations of the sample solution of compound to be tested were added to each well, and the cell control group was added with an equal volume of 1% FBS medium at 10 μL/well, and incubated for 24 h. The supernatant was taken and tested according to the operation sequence of the IL-8 Elisa kit. Calculation formula of Efficiency: Efficiency (%)=(Csample−Ccontrol)/Ccontrol×100%

[9] = system: HeLa (human cervical cancer cells); experiment: Inhibition of proliferation of tumor cell lines (MTT), HeLa; details: Homo sapiens, 72 h, read-out: IC50 value of compound for inhibition of proliferation of tumor cell lines, HeLA
Procedure: as §1, §2, §3, §4

[10] = system: mouse B16-F10 melanoma cells; experiment: Inhibition of proliferation of tumor cell lines (MTT), B16-F10; details: Mus musculus, B16-F10, 72 h, read-out: IC50 value of compound for inhibition of proliferation of tumor cell lines, B16-F10
Procedure: as §1, §3, §4

**Q.** Which results are given for `CCCCCCCCCCCC(=O)O[C@@]12C[C@@H](C)[C@]34C=C(C)[C@H](OC(=O)CCCCC)[C@@]3(O)[C@H](O)C(CO)=C[C@H](C4=O)[C@@H]1C2(C)C` [3-O-hexanoyl-13-O-dodecanoyl-ingenol]?
**A.** IC50 [1]: 18.5 mg/L (≈ 28.7 µM); IC50 [2]: 18.3 mg/L (≈ 28.4 µM); IC50 [3]: 16.5 mg/L (≈ 25.6 µM); IC50 [4]: < 0.2 mg/L; IC50 [5]: 16.1 mg/L (≈ 25 µM); IC50 [6]: 14 mg/L (≈ 21.7 µM); activation at 0.1 µg/mL ([7]; 0.1 μg/mL): 173%; activation at 0.1 µg/mL [8]: 66%

**Q.** How did the IC50 [1] turn out when `CCCCCCCCCCCC(=O)O[C@@]12C[C@@H](C)[C@]34C=C(C)[C@H](O)[C@@]3(O)[C@H](O)C(COC(=O)C(C)C(C)C)=C[C@H](C4=O)[C@@H]1C2(C)C` (some centres unmarked) [20-O-(2,3-dimethylbutyryl)-13-O-dodecanoyl-ingenol] was run?
**A.** 8.89 mg/L (≈ 13.8 µM)

**Q.** What about the IC50 [2] of the same compound?
**A.** 11 mg/L (≈ 17.1 µM)

**Q.** And the IC50 [3]?
**A.** 8.36 mg/L (≈ 13 µM)

**Q.** And the IC50 [4]?
**A.** 0.64 mg/L (≈ 0.992 µM)

**Q.** And the IC50 [5]?
**A.** 10.7 mg/L (≈ 16.6 µM)

**Q.** And the IC50 [6]?
**A.** 10.1 mg/L (≈ 15.7 µM)

**Q.** And the IC50 [9]?
**A.** 14.5 mg/L (≈ 22.5 µM)

**Q.** What about the IC50 [10] of the same compound?
**A.** 16.6 mg/L (≈ 25.7 µM)

**Q.** What about the activation at 3 µg/mL [7] of the same compound?
**A.** 64.5%

**Q.** With `CCCCCCCCCC(=O)O[C@@]12C[C@@H](C)[C@]34C=C(C)[C@H](O)[C@@]3(O)[C@H](O)C(CO)=C[C@H](C4=O)[C@@H]1C2(C)C` [Compound 1a, 13-O-decanoyl-ingenol] as the compound, how does the IC50 [1] read?
**A.** 15.1 mg/L (≈ 29.1 µM)

**Q.** What about the IC50 [2] of the same compound?
**A.** 15 mg/L (≈ 28.9 µM)

**Q.** What about the IC50 [3] of the same compound?
**A.** 9.77 mg/L (≈ 18.8 µM)

**Q.** What about the IC50 [4] of the same compound?
**A.** 0.7 mg/L (≈ 1.35 µM)

**Q.** What about the IC50 [5] of the same compound?
**A.** 19.5 mg/L (≈ 37.6 µM)

**Q.** What about the IC50 [6] of the same compound?
**A.** 13.8 mg/L (≈ 26.6 µM)

**Q.** And the IC50 [9]?
**A.** 29.1 mg/L (≈ 56.1 µM)

**Q.** And the activation at 3 µg/mL [7]?
**A.** 65.2%

**Q.** For `CCCCC/C=C/C=C/C(=O)O[C@@]12C[C@@H](C)[C@]34C=C(C)[C@H](O)[C@@]3(O)[C@H](O)C(CO)=C[C@H](C4=O)[C@@H]1C2(C)C` [Compound 1b, 13-O-(2′E,4′E-decadienoyl)-ingenol], which IC50 [1] is on record?
**A.** 12.8 mg/L (≈ 24.9 µM)

**Q.** What about the IC50 [2] of the same compound?
**A.** 10.6 mg/L (≈ 20.6 µM)

**Q.** And the IC50 [3]?
**A.** 12.9 mg/L (≈ 25.1 µM)

**Q.** What about the IC50 [4] of the same compound?
**A.** 8.97 mg/L (≈ 17.4 µM)

**Q.** What about the IC50 [5] of the same compound?
**A.** 8.01 mg/L (≈ 15.6 µM)

**Q.** What about the IC50 [6] of the same compound?
**A.** 11.8 mg/L (≈ 22.9 µM)

**Q.** How did the IC50 [1] turn out when `CCCCCCCCCCCC(=O)O[C@@]12C[C@@H](C)[C@]34C=C(C)[C@H](O)[C@@]3(O)[C@H](O)C(CO)=C[C@H](C4=O)[C@@H]1C2(C)C` [Compound 1c, 13-O-dodecanoyl-ingenol] was run?
**A.** 11.1 mg/L (≈ 20.3 µM)

**Q.** What about the IC50 [2] of the same compound?
**A.** 6.19 mg/L (≈ 11.3 µM)

**Q.** What about the IC50 [3] of the same compound?
**A.** 8.97 mg/L (≈ 16.4 µM)

**Q.** And the IC50 [4]?
**A.** 5.51 mg/L (≈ 10.1 µM)

**Q.** What about the IC50 [5] of the same compound?
**A.** 6.49 mg/L (≈ 11.9 µM)

**Q.** And the IC50 [6]?
**A.** 6.36 mg/L (≈ 11.6 µM)

**Q.** And the IC50 [9]?
**A.** 15.1 mg/L (≈ 27.6 µM)

**Q.** For `CCCCCCCCCCCC(=O)O[C@@]12C[C@@H](C)[C@]34C=C(C)[C@H](O)[C@@]3(O)[C@H](O)C(C)=C[C@H](C4=O)[C@@H]1C2(C)C` [Compound 1d, 20-deoxy-13-O-dodecanoyl-ingenol], which IC50 [1] is on record?
**A.** 26.8 mg/L (≈ 50.5 µM)

**Q.** What about the IC50 [2] of the same compound?
**A.** 15.4 mg/L (≈ 29 µM)

**Q.** What about the IC50 [3] of the same compound?
**A.** 19.2 mg/L (≈ 36.2 µM)

**Q.** What about the IC50 [4] of the same compound?
**A.** 6.88 mg/L (≈ 13 µM)

**Q.** And the IC50 [5]?
**A.** 31.5 mg/L (≈ 59.4 µM)

**Q.** What about the IC50 [6] of the same compound?
**A.** 29.2 mg/L (≈ 55 µM)

**Q.** How did the IC50 [1] turn out when `CC1=C[C@]23C(=O)[C@@H](C4OC4(C)[C@@H](O)[C@]2(O)[C@H]1O)[C@H]1C(C[C@H]3C)C1(C)C` (some centres unmarked) [Compound 1e, 6,7-epoxy-20-deoxy-ingenol] was run?
**A.** > 200 mg/L

**Q.** What about the IC50 [2] of the same compound?
**A.** > 200 mg/L

**Q.** What about the IC50 [3] of the same compound?
**A.** > 200 mg/L

**Q.** What about the IC50 [4] of the same compound?
**A.** 5.52 mg/L (≈ 15.8 µM)

**Q.** What about the IC50 [5] of the same compound?
**A.** > 200 mg/L

**Q.** What about the IC50 [6] of the same compound?
**A.** > 200 mg/L
